The text below walks through data of patent US11351168B1 (Celgene CAR LLC, priority 2008, dated 2022).

The test has as its system BTK signaling in Ramos cells. Kind of test: BTK Ramos cellular assay (phosphorylation of BTK substrate PLCγ2). The class given is cell-based, human. To be noted: Homo sapiens, 1 hour compound, anti-IgM stimulation, read-out: BTK Inhibition (Ramos cellular). Here is the method: Compounds I-2, I-4, and I-7 were assayed in Ramos human Burkitt lymphoma cells. Ramos cells were grown in suspension in T225 flasks, spun down, resuspended in 50 ml serum-free media and incubated for 1 hour. Compound was added to Ramos cells in serum free media to a final concentration of 1, 0.1, 0.01, or 0.001 μM. Ramos cells were incubated with compound for 1 hour, washed again and resuspended in 100 ul serum-free media. Cells were then stimulated with 1 μg of goat F(ab′)2 Anti-Human IgM and incubated on ice for 10 minutes to activate B cell receptor signaling pathways. After 10 minutes, the cells were washed once with PBS and then lysed on ice with Invitrogen Cell Extraction buffer. 16 μg total protein from lysates were loaded on gel and blots were probed for phosphorylation of the BTK substrate PLCγ2.
`C=CC(=O)Nc1cccc(Nc2nc(Nc3ccc4c(c3)N(C(=O)C(F)(F)F)CCO4)ncc2F)c1` [Compound I-143, N-(3-(2-(4-trifluoroacetyl-2,3-dihydrobenzo[1,4]oxazin-6-yl)amino-5-fluoropyrimidin-4-ylamino)phenyl)acrylamide]: the IC50 was less than 10 nM.
Under `C=CC(=O)Nc1cccc(Nc2nc(Nc3ccc(OC(C)C)nc3)ncc2F)c1` [Compound I-172, N-(3-(5-fluoro-2-(6-isopropoxypyridin-3-ylamino)pyrimidin-4-ylamino)phenyl)acrylamide] stands less than 10 nM.
Consider `C=CC(=O)Nc1cccc(Nc2nc(Nc3ccc(OC4CCC4)nc3)ncc2F)c1` [Compound I-79, N-(3-(2-(6-cyclobutoxypyridin-3-ylamino)-5-fluoropyrimidin-4-ylamino)phenyl)acrylamide], for which the IC50 was less than 10 nM.
As to `C=CC(=O)N(C)Cc1ccc(Nc2nc(Nc3ccc(OC)nc3)ncc2F)cc1` [Compound I-114, N-(4-(5-fluoro-2-(6-methoxypyridin-3-ylamino)pyrimidin-4-ylamino)benzyl)-N-methylacrylamide], the IC50 lay within 10 to 100 nM.
To `C=CC(=O)Nc1cccc(Nc2nc(Nc3ccc(OCCCS(C)(=O)=O)c(F)c3)ncc2F)c1` [Compound I-318, N-(3-(5-fluoro-2-(3-fluoro-4-(3-(methylsulfonyl)propoxy)phenylamino)pyrimidin-4-ylamino)phenyl)acrylamide] belongs less than 10 nM; to `C=CC(=O)Nc1cccc(Nc2nc(Nc3ccc4[nH]ncc4c3)ncc2F)c1` [Compound I-156], less than 10 nM.
On to `C=CC(=O)Nc1cccc(Nc2nc(Nc3ccc(OCC(C)(C)O)nc3)ncc2F)c1` [Compound I-313, N-(3-(5-fluoro-2-(6-(2-hydroxy-2-methylpropoxy)pyridin-3-ylamino)pyrimidin-4-ylamino)phenyl)acrylamide], for which the IC50 is less than 10 nM.
On to `C=CC(=O)N1CCOc2ccc(Nc3nc(Nc4ccc5c(c4)CC(=O)N5)ncc3C(C)=O)cc21` [Compound I-129, 5-[5-Acetyl-4-(4-acryloyl-3,4-dihydro-2H-benzo[1,4]oxazin-6-ylamino)-pyrimidin-2-ylamino]-1,3-dihydro-indol-2-one], for which the IC50 is less than 10 nM.
Under `C=CC(=O)Nc1cccc(Nc2nc(Nc3cccc(OCCN(C)C)c3)ncc2F)c1` [Compound I-233, N-(3-(2-(3-(2-(dimethylamino)ethoxy)phenylamino)-5-fluoropyrimidin-4-ylamino)phenyl)acrylamide] stands less than 10 nM; under `C=CC(=O)Nc1cccc(Nc2nc(Nc3ccc4c(cnn4C(=O)OC(C)(C)C)c3)ncc2F)c1` [Compound I-151], less than 10 nM.
Under `C=CC(=O)Nc1cccc(Nc2nc(Nc3ccc(OCCO)nc3)ncc2C(C)=O)c1` [Compound I-121, N-(3-{5-Acetyl-2-[6-(2-hydroxy-ethoxy)-pyridin-3-ylamino]-pyrimidin-4-ylamino}-phenyl)-acrylamide] stands 10 to 100 nM.
Under `C=CC(=O)Nc1cc(Nc2nc(Nc3ccc(OCCOC)cc3)ncc2F)ccc1Cl` [Compound I-108, N-(2-chloro-5-(5-fluoro-2-(4-(2-methoxyethoxy)phenylamino)pyrimidin-4-ylamino)phenyl)acrylamide] stands 10 to 100 nM; under `C=CC(=O)Nc1cccc(Nc2nc(Nc3ccc(N(C)CCOC)nc3)ncc2F)c1` [Compound I-77, N-(3-(5-fluoro-2-(6-((2-methoxyethyl)(methyl)amino)pyridin-3-ylamino)pyrimidin-4-ylamino)phenyl)acrylamide], less than 10 nM; under `C=CC(=O)Nc1cccc(Nc2nc(Nc3ccc(OCC4CCN(C)CC4)nc3)ncc2F)c1` [Compound I-78, N-(3-(5-fluoro-2-(6-((1-methylpiperidin-4-yl)methoxy)pyridin-3-ylamino)pyrimidin-4-ylamino)phenyl)acrylamide], less than 10 nM.
As for `C=CC(=O)N(C)Cc1cccc(Nc2nc(Nc3ccccc3)ncc2C)c1` [Compound I-220, N-methyl-N-(3-(5-methyl-2-(phenylamino)pyrimidin-4-ylamino)benzyl)acrylamide], the IC50 is 10 to 100 nM.
With `C=C(C)C(=O)c1ccc(Nc2nc(Nc3ccccc3)ncc2F)cc1` [Compound I-185, 1-(4-(5-fluoro-2-(phenylamino)pyrimidin-4-ylamino)phenyl)-2-methylprop-2-en-1-one], the IC50 was 100 to 1000 nM.
To `C=CC(=O)Nc1cccc(Nc2nc(Nc3ccc(Cl)c(OCC(C)(C)O)c3)ncc2F)c1` [Compound I-249, N-(3-(2-(4-chloro-3-(2-hydroxy-2-methylpropoxy)phenylamino)-5-fluoropyrimidin-4-ylamino)phenyl)acrylamide] belongs less than 10 nM; to `C=CC(=O)Nc1cccc(Nc2nc(Nc3ccc(OCc4ccccn4)c(Cl)c3)ncc2F)c1` [Compound I-86, N-(3-(2-(3-chloro-4-(pyridin-2-ylmethoxy)phenylamino)-5-fluoropyrimidin-4-ylamino)phenyl)acrylamide], less than 10 nM; to `C=CC(=O)Nc1cccc(Nc2nc(Nc3cccc(OCC(=O)N4CCOCC4)c3)ncc2F)c1` [Compound I-110, N-(3-(5-fluoro-2-(3-(2-morpholino-2-oxoethoxy)phenylamino)pyrimidin-4-ylamino)phenyl)acrylamide], 10 to 100 nM.
For `C=CC(=O)Nc1cccc(Nc2nc(Nc3ccc(OC)nc3)ncc2C(N)=O)c1` [Compound I-209, 4-(3-acrylamidophenylamino)-2-(6-methoxypyridin-3-ylamino)pyrimidine-5-carboxamide], the IC50 lay in the range of 10 to 100 nM.
Regarding `C=CC(=O)N1CCc2cc(Nc3nc(Nc4cccc(S(N)(=O)=O)c4)ncc3C)ccc2C1` [Compound I-40, 3-(4-(2-acryloyl-1,2,3,4-tetrahydroisoquinolin-6-ylamino)-5-methylpyrimidin-2-ylamino)benzenesulfonamide], the IC50 was in the range of 10 to 100 nM.
Under `C=CC(=O)Nc1cccc(Nc2nc(Nc3cccc(OCCO)c3)ncc2F)c1` [Compound I-105, N-(3-(5-fluoro-2-(3-(2-hydroxyethoxy)phenylamino)pyrimidin-4-ylamino)phenyl)acrylamide] stands less than 10 nM.
Under `C=CC(=O)N1CCOc2ccc(Nc3nc(Nc4ccc(N5CCOCC5)nc4)ncc3C(C)=O)cc21` [Compound I-168, 1-{6-[5-Acetyl-2-(6-morpholin-4-yl-pyridin-3-ylamino)-pyrimidin-4-ylamino]-2,3-dihydro-benzo[1,4]oxazin-4-yl}-propenone] stands 10 to 100 nM; under `C=CC(=O)Nc1cccc(Nc2nc(Nc3cccc(OC)c3)ncc2OC)c1` [Compound I-158, N-(3-(5-methoxy-2-(3-methoxyphenylamino)pyrimidin-4-ylamino)phenyl)acrylamide], 10 to 100 nM; under `C=CC(=O)N1CCC[C@@H](Oc2nc(Nc3ccc(OC)nc3)ncc2F)C1` [Compound I-180, (R)-1-(3-(5-fluoro-2-(6-methoxypyridin-3-ylamino)pyrimidin-4-yloxy)piperidin-1-yl)prop-2-en-1-one], 100 to 1000 nM.
Under `C=CC(=O)Nc1cccc(Oc2nc(Nc3ccc(OC)nc3)ncc2C(=O)NC2CC2)c1` [Compound I-176, 4-(3-acrylamidophenoxy)-2-(6-methoxypyridin-3-ylamino)-pyrimidine-5-carboxylic acid cyclopropylamide] stands 100 to 1000 nM; under `C=CC(=O)Nc1cccc(Nc2nc(Nc3ccc(OCCCS(C)(=O)=O)nc3)ncc2F)c1` [Compound I-80, N-(3-(5-fluoro-2-(6-(3-(methylsulfonyl)propoxy)pyridin-3-ylamino)pyrimidin-4-ylamino)phenyl)acrylamide], less than 10 nM.
Turning to `C=CC(=O)N1CCC[C@@H](Nc2nc(Nc3cccc(OCCN4CCOCC4)c3)ncc2F)C1` [Compound I-135, (R)-1-(3-(5-fluoro-2-(3-(2-morpholinoethoxy)phenylamino)pyrimidin-4-ylamino)piperidin-1-yl)prop-2-en-1-one], the IC50 lay in the range of 10 to 100 nM.
With `C=CC(=O)Nc1cccc(Nc2nc(Nc3ccc(O[C@@H]4CCOC4)c(F)c3)ncc2F)c1` [Compound I-316, (R)—N-(3-(5-fluoro-2-(3-fluoro-4-(tetrahydrofuran-3-yloxy)phenylamino)pyrimidin-4-ylamino)phenyl)acrylamide], the IC50 is less than 10 nM.
Under `C=CC(=O)Nc1cccc(Nc2nc(Nc3cccc(OCCCn4ccnc4)c3)ncc2F)c1` [Compound I-204, N-(3-(2-(3-(3-(1H-imidazol-1-yl)propoxy)phenylamino)-5-fluoropyrimidin-4-ylamino)phenyl)acrylamide] stands less than 10 nM.
Under `C=CC(=O)Nc1cccc(Nc2nc(Nc3ccc(OCCOC)nc3)ncc2C(C)=O)c1` [Compound I-122, N-(3-{5-Acetyl-2-[6-(2-methoxy-ethoxy)-pyridin-3-ylamino]-pyrimidin-4-ylamino}-phenyl)-acrylamide] stands less than 10 nM; under `C=CC(=O)Nc1cccc(Nc2nc(Nc3ccc(Cl)c(OCCOC)c3)ncc2F)c1` [Compound I-321, N-(3-(2-(4-chloro-3-(2-methoxyethoxy)phenylamino)-5-fluoropyrimidin-4-ylamino)phenyl)acrylamide], less than 10 nM.
Under `C=CC(=O)N1CCCC(Nc2nc(Nc3ccccc3)ncc2C)C1` (centres unmarked) [Compound I-27] stands 10 to 100 nM.
As to `C=CC(=O)Nc1cccc(Nc2nc(Nc3cccc(OCC(C)(C)O)c3)ncc2F)c1` [Compound I-118, N-(3-(5-fluoro-2-(3-(2-hydroxy-2-methylpropoxy)phenylamino)pyrimidin-4-ylamino)phenyl)acrylamide], the IC50 was less than 10 nM.
To `C=CC(=O)Nc1cccc(Oc2nc(Nc3ccc(OC)nc3)ncc2C)c1` [Compound I-186, N-(3-(2-(6-methoxypyridin-3-ylamino)-5-methylpyrimidin-4-yloxy)phenyl)acrylamide] belongs less than 10 nM.
